Experimental data taken from US12344618B2, “Heterotricyclic derivative compound and use of same” (HANMI PHARMACEUTICAL CO., LTD., priority 2019, dated 2025).
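For IC50 in this document: Read-out is substrate peptide methylation, captured on streptavidin-coated SPA beads and counted by scintillation, with the reaction run in Tris-HCl buffer at pH 8.0 containing 1% DMSO.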

These compounds were tested on KARPAS-422 (EZH2 Y641N mutation) (assay: Cell growth inhibition test, KARPAS-422). Conditions: Homo sapiens, KARPAS-422, 168 h, KARPAS-422, culture time 7 days; read-out: Cell growth inhibitory activity (GI50, nM) KARPAS-422 (EZH2 Y641N mutation).
Type: cell-based
Description: Each type of the cultured cells was seeded in 6-well plates or 48-96 well plates, and subculture or medium replacement was performed every 3 to 4 days. Next, the cells were subcultured for a total of 7 to 14 days, and then seeded in 96-well plates. 3 to 5 days before the measurement of the effect, the cells were seeded in 96-well plates, and then the absorbance (Tz) on the day of seeding was measured. The absorbance after the reaction was measured by the plate reader device Synergy NeoAlpha (Biotek) using Cell-Titer-Glo Cell Viability Assay (Promega, G7573) according to the attached manual. Based on the absorbance (Tz) measured on the seeding day and the absorbance of each of the DMSO-treated group (C) and the sample-added group (Ti) measured on the day of effect determination, the percentage of cell proliferation inhibition was calculated according to the following Equation 1. [(Ti−Tz)/(C−Tz)]×100 for concentrations for which Ti≥Tz […] for concentrations for which Ti<Tz. [Equation 1]
Work on `Cc1cc(C)c(CN2CCc3c(Cl)c4c(c(C)c3C2=O)OC(C)([C@@H]2CCC[C@H](N(C)C)C2)O4)c(=O)[nH]1` (relative stereo) [Compound 36, 9-chloro-6-((4,6-dimethyl-2-oxo-1,2-dihydropyridin-3-yl)methyl)-2-(cis-3-(dimethylamino)cyclohexyl)-2,4-dimethyl-7,8-dihydro-[1,3]dioxolo[4,5-g]isoquinolin-5(6H)-one] yielded a GI50 of 87 nM. `Cc1cc(C)c(CN2CCc3c(Cl)c4c(c(C)c3C2=O)OC(C)([C@@H]2CC[C@H](N(C)C)C2)O4)c(=O)[nH]1` (relative stereo) [Compound 37, 9-chloro-6-((4,6-dimethyl-2-oxo-1,2-dihydropyridin-3-yl)methyl)-2-(cis-3-(dimethylamino)cyclopentyl)-2,4-dimethyl-7,8-dihydro-[1,3]dioxolo[4,5-g]isoquinolin-5(6H)-one] gave a GI50 of 22 nM. `Cc1cc(C)c(CN2CCc3c(cc4c(c3C)OC(C)([C@H]3CC[C@H](N(C)C)CC3)O4)C2=O)c(=O)[nH]1` (stereo partly drawn) [Compound 3, 6-((4,6-dimethyl-2-oxo-1,2-dihydropyridin-3-yl)methyl)-2-(trans-4-(dimethylamino)cyclohexyl)-2,9-dimethyl-7,8-dihydro-[1,3]dioxolo[4,5-g]isoquinolin-5(6H)-one] showed a GI50 of 39 nM. With `Cc1cc(C)c(CN2CCc3c(Cl)c4c(c(C)c3C2=O)OC(C)([C@H]2CC[C@H](N)CC2)O4)c(=O)[nH]1` (stereo partly drawn) [Compound 8, 2-(trans-4-aminocyclohexyl)-9-chloro-6-((4,6-dimethyl-2-oxo-1,2-dihydropyridin-3-yl)methyl)-2,4-dimethyl-7,8-dihydro-[1,3]dioxolo[4,5-g]isoquinolin-5(6H)-one] the GI50 was 13 nM. `CC[C@H](O)C(=O)N[C@H]1CC[C@H](C2(C)Oc3c(C)c4c(c(Cl)c3O2)CCN(Cc2c(C)cc(C)[nH]c2=O)C4=O)CC1` (stereo partly drawn) [Compound 19] was tested, and the GI50 was 440 nM. With `Cc1cc(C)c(CN2CCc3c(Cl)c4c(c(C)c3C2=O)OC(C)(c2ccc3c(ccn3C)c2)O4)c(=O)[nH]1` (stereo not drawn) [Compound 32, 9-chloro-6-((4,6-dimethyl-2-oxo-1,2-dihydropyridin-3-yl)methyl)-2,4-dimethyl-2-(1-methyl-1H-indol-5-yl)-7,8-dihydro-[1,3]dioxolo[4,5-g]isoquinolin-5(6H)-one] the GI50 was greater than 1000 nM. With `CO[C@H]1CC[C@H](C2(C)Oc3c(C)c4c(c(Cl)c3O2)CCN(Cc2c(C)cc(C)[nH]c2=O)C4=O)CC1` (stereo partly drawn) [Compound 33, 9-chloro-6-((4,6-dimethyl-2-oxo-1,2-dihydropyridin-3-yl)methyl)-2-(trans-4-methoxycyclohexyl)-2,4-dimethyl-7,8-dihydro-[1,3]dioxolo[4,5-g]isoquinolin-5(6H)-one] the GI50 was 187 nM. With `Cc1cc(C)c(CN2CCc3c(Cl)c4c(c(C)c3C2=O)OC(C)([C@H]2C[C@H](N(C)C)C2)O4)c(=O)[nH]1` (stereo partly drawn) [Compound 35, 9-chloro-6-((4,6-dimethyl-2-oxo-1,2-dihydropyridin-3-yl)methyl)-2-(trans-3-(dimethylamino)cyclobutyl)-2,4-dimethyl-7,8-dihydro-[1,3]dioxolo[4,5-g]isoquinolin-5(6H)-one] the GI50 was 57 nM. `Cc1cc(C)c(CN2CCc3c(c(C)c4c(c3-c3ccccc3)OC(C)([C@H]3CC[C@H](N(C)C)CC3)O4)C2=O)c(=O)[nH]1` (stereo partly drawn) [Compound 56, 6-((4,6-dimethyl-2-oxo-1,2-dihydropyridin-3-yl)methyl)-2-(trans-4-(dimethylamino)cyclohexyl)-2,4-dimethyl-9-phenyl-7,8-dihydro-[1,3]dioxolo[4,5-g]isoquinolin-5(6H)-one] was tested, and the GI50 was 11 nM. Compound `Cc1cc(C)c(CN2CCc3c(c(C)c4c(c3C3=CCCC3)OC(C)([C@H]3CC[C@H](N(C)C)CC3)O4)C2=O)c(=O)[nH]1` (stereo partly drawn) [Compound 57, 9-(cyclopent-1-en-1-yl)-6-((4,6-dimethyl-2-oxo-1,2-dihydropyridin-3-yl)methyl)-2-(trans-4-(dimethylamino)cyclohexyl)-2,4-dimethyl-7,8-dihydro-[1,3]dioxolo[4,5-g]isoquinolin-5(6H)-one] has a GI50 of 13 nM. `Cc1cc(C)c(CN2CCc3c(c(C)c4c(c3C3CCCC3)OC(C)([C@H]3CC[C@H](N(C)C)CC3)O4)C2=O)c(=O)[nH]1` (stereo partly drawn) [Compound 58, 9-cyclopentyl-6-((4,6-dimethyl-2-oxo-1,2-dihydropyridin-3-yl)methyl)-2-(trans-4-(dimethylamino)cyclohexyl)-2,4-dimethyl-7,8-dihydro-[1,3]dioxolo[4,5-g]isoquinolin-5(6H)-one] was tested, and the GI50 was 13 nM. For `Cc1cc(C)c(CN2CCc3c(c(C)c4c(c3C3=CCCCC3)OC(C)([C@H]3CC[C@H](N(C)C)CC3)O4)C2=O)c(=O)[nH]1` (stereo partly drawn) [Compound 59, 9-(cyclohex-1-en-1-yl)-6-((4,6-dimethyl-2-oxo-1,2-dihydropyridin-3-yl)methyl)-2-(trans-4-(dimethylamino)cyclohexyl)-2,4-dimethyl-7,8-dihydro-[1,3]dioxolo[4,5-g]isoquinolin-5(6H)-one], the GI50 was 28 nM. `Cc1cc(C)c(CN2CCc3c(c(C)c4c(c3C3CCCCC3)OC(C)([C@H]3CC[C@H](N(C)C)CC3)O4)C2=O)c(=O)[nH]1` (stereo partly drawn) [Compound 60, 9-cyclohexyl-6-((4,6-dimethyl-2-oxo-1,2-dihydropyridin-3-yl)methyl)-2-(trans-4-(dimethylamino)cyclohexyl)-2,4-dimethyl-7,8-dihydro-[1,3]dioxolo[4,5-g]isoquinolin-5(6H)-one] showed a GI50 of 28 nM. In the case of `C=C(C)c1c2c(c(C)c3c1OC(C)([C@H]1CC[C@H](N(C)C)CC1)O3)C(=O)N(Cc1c(C)cc(C)[nH]c1=O)CC2` (stereo partly drawn) [Compound 61, 6-((4,6-dimethyl-2-oxo-1,2-dihydropyridin-3-yl)methyl)-2-(trans-4-(dimethylamino)cyclohexyl)-2,4-dimethyl-9-(prop-1-en-2-yl)-7,8-dihydro-[1,3]dioxolo[4,5-g]isoquinolin-5(6H)-one], the GI50 is reported as 4.8 nM. Work on `Cc1cc(C)c(CN2CCc3c(c(C)c4c(c3C(C)C)OC(C)([C@H]3CC[C@H](N(C)C)CC3)O4)C2=O)c(=O)[nH]1` (stereo partly drawn) [Compound 62, 6-((4,6-dimethyl-2-oxo-1,2-dihydropyridin-3-yl)methyl)-2-(trans-4-(dimethylamino)cyclohexyl)-9-isopropyl-2,4-dimethyl-7,8-dihydro-[1,3]dioxolo[4,5-g]isoquinolin-5(6H)-one] yielded a GI50 of 6.2 nM. With `CCc1c2c(c(C)c3c1OC(C)([C@H]1CC[C@H](N(C)C)CC1)O3)C(=O)N(Cc1c(C)cc(C)[nH]c1=O)CC2` (stereo partly drawn) [Compound 63, 6-((4,6-dimethyl-2-oxo-1,2-dihydropyridin-3-yl)methyl)-2-(trans-4-(dimethylamino)cyclohexyl)-9-ethyl-2,4-dimethyl-7,8-dihydro-[1,3]dioxolo[4,5-g]isoquinolin-5(6H)-one] the GI50 was 4.4 nM. `Cc1cc(C)c(CN2CCc3c(c(C)c4c(c3-c3ccco3)OC(C)([C@H]3CC[C@H](N(C)C)CC3)O4)C2=O)c(=O)[nH]1` (stereo partly drawn) [Compound 64, 6-((4,6-dimethyl-2-oxo-1,2-dihydropyridin-3-yl)methyl)-2-(trans-4-(dimethylamino)cyclohexyl)-9-(furan-2-yl)-2,4-dimethyl-7,8-dihydro-[1,3]dioxolo[4,5-g]isoquinolin-5(6H)-one] gave a GI50 of 5 nM. Compound `Cc1cc(C)c(CN2CCc3c(c(C)c4c(c3C3=CCOCC3)OC(C)([C@H]3CC[C@H](N(C)C)CC3)O4)C2=O)c(=O)[nH]1` (stereo partly drawn) [Compound 65] has a GI50 of 8.8 nM. Compound `Cc1cc(C)c(CN2CCc3c(c(C)c4c(c3-c3cccnc3)OC(C)([C@H]3CC[C@H](N(C)C)CC3)O4)C2=O)c(=O)[nH]1` (stereo partly drawn) [Compound 66, 6-((4,6-dimethyl-2-oxo-1,2-dihydropyridin-3-yl)methyl)-2-(trans-4-(dimethylamino)cyclohexyl)-2,4-dimethyl-9-(pyridin-3-yl)-7,8-dihydro-[1,3]dioxolo[4,5-g]isoquinolin-5(6H)-one] has a GI50 of 6.4 nM. For `Cc1cc(C)c(CN2CCc3c(c(C)c4c(c3-c3cncs3)OC(C)([C@H]3CC[C@H](N(C)C)CC3)O4)C2=O)c(=O)[nH]1` (stereo partly drawn) [Compound 67, 6-((4,6-dimethyl-2-oxo-1,2-dihydropyridin-3-yl)methyl)-2-(trans-4-(dimethylamino)cyclohexyl)-2,4-dimethyl-9-(thiazol-5-yl)-7,8-dihydro-[1,3]dioxolo[4,5-g]isoquinolin-5(6H)-one], the GI50 was 4.3 nM. For `Cc1cc(C)c(CN2CCc3c(c(C)c4c(c3-c3cnn(C)c3)OC(C)([C@H]3CC[C@H](N(C)C)CC3)O4)C2=O)c(=O)[nH]1` (stereo partly drawn) [Compound 68, 6-((4,6-dimethyl-2-oxo-1,2-dihydropyridin-3-yl)methyl)-2-(trans-4-(dimethylamino)cyclohexyl)-2,4-dimethyl-9-(1-methyl-1H-pyrazol-4-yl)-7,8-dihydro-[1,3]dioxolo[4,5-g]isoquinolin-5 (6H)-one], the GI50 was 5.1 nM.

Same assay, conditions: KARPAS-422, culture time 7 days; read-out: Cell growth inhibitory activity (GI50, nM) KARPAS-422 (EZH2 Y641N mutation)
For `Cc1cc(C)c(CN2CCc3c(C)c4c(c(Cl)c3C2=O)OC(C)([C@H]2CC[C@H](N(C)C)CC2)O4)c(=O)[nH]1` (single isomer, unassigned) [Compound 6, 4-chloro-6-((4,6-dimethyl-2-oxo-1,2-dihydropyridin-3-yl)methyl)-2-(trans-4-(dimethylamino)cyclohexyl)-2,9-dimethyl-7,8-dihydro-[1,3]dioxolo[4,5-g]isoquinolin-5(6H)-one], the GI50 was 310 nM.

These compounds were tested against EZH2 (Homo sapiens, UniProt Q15910) (assay: Inhibitory activity against EZH2 methyltransferase (radiometric scintillation proximity assay)). Conditions: Enzyme inhibitory activity (IC50, nM) EZH2, 2.3 nmol/L enzyme, 90 minutes, room temperature.
Chain of EZH2 (Q15910 whole entry): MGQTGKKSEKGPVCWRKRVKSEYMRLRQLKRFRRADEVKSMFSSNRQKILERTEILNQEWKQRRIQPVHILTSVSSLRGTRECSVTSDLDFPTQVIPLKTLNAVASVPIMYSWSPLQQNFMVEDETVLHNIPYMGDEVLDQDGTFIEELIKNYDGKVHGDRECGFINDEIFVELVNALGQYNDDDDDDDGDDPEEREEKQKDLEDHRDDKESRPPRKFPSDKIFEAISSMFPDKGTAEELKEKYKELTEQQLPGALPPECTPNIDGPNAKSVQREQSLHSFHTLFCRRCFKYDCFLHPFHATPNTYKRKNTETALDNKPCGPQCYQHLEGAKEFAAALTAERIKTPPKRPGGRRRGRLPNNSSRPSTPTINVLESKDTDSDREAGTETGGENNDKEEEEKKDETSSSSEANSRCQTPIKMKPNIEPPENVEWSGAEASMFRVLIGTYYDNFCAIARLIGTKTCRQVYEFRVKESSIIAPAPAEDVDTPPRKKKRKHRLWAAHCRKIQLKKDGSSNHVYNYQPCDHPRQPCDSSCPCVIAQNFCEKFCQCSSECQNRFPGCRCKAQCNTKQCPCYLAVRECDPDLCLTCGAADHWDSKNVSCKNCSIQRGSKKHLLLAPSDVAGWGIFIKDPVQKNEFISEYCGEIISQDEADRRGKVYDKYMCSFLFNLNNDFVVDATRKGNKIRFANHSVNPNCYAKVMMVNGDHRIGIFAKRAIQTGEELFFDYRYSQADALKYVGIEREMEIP
Chain of EZH2 (O75530 whole entry partner): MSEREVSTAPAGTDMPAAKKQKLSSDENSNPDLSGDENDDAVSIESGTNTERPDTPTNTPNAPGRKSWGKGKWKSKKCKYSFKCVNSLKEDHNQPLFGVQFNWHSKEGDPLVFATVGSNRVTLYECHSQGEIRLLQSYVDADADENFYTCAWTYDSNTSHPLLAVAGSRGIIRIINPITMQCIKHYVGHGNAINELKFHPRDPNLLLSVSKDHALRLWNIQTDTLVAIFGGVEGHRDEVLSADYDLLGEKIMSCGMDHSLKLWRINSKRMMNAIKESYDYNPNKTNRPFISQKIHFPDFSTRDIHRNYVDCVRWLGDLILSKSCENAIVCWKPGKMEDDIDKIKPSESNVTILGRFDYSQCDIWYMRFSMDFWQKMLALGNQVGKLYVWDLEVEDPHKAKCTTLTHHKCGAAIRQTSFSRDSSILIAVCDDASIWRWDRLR
Chain of EZH2 (Q15022 whole entry partner): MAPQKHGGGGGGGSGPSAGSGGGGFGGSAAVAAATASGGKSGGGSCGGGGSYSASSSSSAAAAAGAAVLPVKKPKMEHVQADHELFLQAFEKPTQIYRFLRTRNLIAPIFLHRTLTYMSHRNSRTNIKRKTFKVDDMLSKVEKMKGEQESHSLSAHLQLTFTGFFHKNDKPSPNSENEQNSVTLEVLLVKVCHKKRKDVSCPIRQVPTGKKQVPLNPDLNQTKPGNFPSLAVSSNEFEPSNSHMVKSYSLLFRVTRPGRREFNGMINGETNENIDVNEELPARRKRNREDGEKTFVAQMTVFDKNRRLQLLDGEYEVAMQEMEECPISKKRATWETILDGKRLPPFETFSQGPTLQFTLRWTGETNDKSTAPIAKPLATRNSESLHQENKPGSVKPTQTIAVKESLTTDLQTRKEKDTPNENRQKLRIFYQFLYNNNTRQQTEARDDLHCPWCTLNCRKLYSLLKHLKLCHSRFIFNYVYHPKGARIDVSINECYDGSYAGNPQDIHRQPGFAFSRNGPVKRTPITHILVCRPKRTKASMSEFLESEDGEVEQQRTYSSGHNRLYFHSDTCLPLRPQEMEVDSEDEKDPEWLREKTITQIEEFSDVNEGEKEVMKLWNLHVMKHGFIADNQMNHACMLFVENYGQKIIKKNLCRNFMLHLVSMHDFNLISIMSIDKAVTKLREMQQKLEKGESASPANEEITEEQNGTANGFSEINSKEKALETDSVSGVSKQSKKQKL
Chain of EZH2 (Q09028 whole entry partner): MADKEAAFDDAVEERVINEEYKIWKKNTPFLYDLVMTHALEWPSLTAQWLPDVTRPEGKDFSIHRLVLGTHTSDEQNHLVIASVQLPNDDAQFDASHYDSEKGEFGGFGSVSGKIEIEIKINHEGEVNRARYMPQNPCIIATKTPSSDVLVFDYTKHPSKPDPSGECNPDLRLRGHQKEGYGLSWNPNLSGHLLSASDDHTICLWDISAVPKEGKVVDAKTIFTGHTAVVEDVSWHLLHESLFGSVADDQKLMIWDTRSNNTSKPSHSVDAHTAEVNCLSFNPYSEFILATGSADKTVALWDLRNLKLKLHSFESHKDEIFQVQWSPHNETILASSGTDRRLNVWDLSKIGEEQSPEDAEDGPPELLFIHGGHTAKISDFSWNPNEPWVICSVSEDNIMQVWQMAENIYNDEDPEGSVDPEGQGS
Chain of EZH2 (Q6ZN18 whole entry partner): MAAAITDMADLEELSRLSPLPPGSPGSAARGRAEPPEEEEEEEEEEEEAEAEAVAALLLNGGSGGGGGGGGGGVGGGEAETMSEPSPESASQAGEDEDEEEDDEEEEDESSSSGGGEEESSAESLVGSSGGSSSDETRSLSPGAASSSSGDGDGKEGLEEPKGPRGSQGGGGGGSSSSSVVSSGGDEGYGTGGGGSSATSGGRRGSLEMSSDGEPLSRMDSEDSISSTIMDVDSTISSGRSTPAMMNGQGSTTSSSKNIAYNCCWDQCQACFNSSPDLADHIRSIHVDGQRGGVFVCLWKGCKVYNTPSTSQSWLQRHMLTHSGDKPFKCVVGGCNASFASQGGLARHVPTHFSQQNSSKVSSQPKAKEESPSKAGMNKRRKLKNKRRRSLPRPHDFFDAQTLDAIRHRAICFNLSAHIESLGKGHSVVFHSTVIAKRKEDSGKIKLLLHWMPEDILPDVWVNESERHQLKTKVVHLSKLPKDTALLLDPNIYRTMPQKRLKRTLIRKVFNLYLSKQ
Description: The inhibitory activities of the synthetic compounds against EZH1 or EZH2 methyltransferase were measured. The experiment was conducted by Reaction Biology Corp., and the activity of EZH1 or EZH2 was measured using a radiometric scintillation proximity assay. […] The reaction buffer consisted of 50 mmol/L Tris-HCl (pH 8.0), 50 mmol/L NaCl, 1 mmol/L EDTA, 1 mmoL/L DTT, 1 mmol/L PMSF, and 1% DMSO. Trichloroacetic acid was added to terminate the reaction, and PVT streptavidin-coated SPA beads were added to each reaction solution, followed by further reaction at room temperature for 1 hour again. The methylation value of the substrate peptide was measured using the TopCount NXT plate reader.
For `Cc1cc(C)c(CN2CCc3c(Cl)c4c(c(C)c3C2=O)OC(C)([C@H]2CC[C@H](N)CC2)O4)c(=O)[nH]1` (stereo partly drawn) [Compound 8, 2-(trans-4-aminocyclohexyl)-9-chloro-6-((4,6-dimethyl-2-oxo-1,2-dihydropyridin-3-yl)methyl)-2,4-dimethyl-7,8-dihydro-[1,3]dioxolo[4,5-g]isoquinolin-5(6H)-one], the IC50 was 3.2 nM. `CC[C@H](O)C(=O)N[C@H]1CC[C@H](C2(C)Oc3c(C)c4c(c(Cl)c3O2)CCN(Cc2c(C)cc(C)[nH]c2=O)C4=O)CC1` (stereo partly drawn) [Compound 19] showed an IC50 of 4.4 nM.
